Results on eleven compounds are retold here after patent US20240360178A1, “MACROCYCLIC IMMUNOMODULATORS” (Bristol-Myers Squibb Company, priority 2021, published 2024).

The test has as its target T1, human PD-1 (Jurkat-PD-1 cells) / PE-labeled human PD-L1-Ig (Homo sapiens, UniProt Q15116).
T1 construct: expressed in transfected cells; host or cells: Jurkat cell line over-expressing human PD-1
In words: Jurkat-PD-1 Cell Binding High-Content Screening Assay (CBA); Jurkat hPD1-PDL1 assay. Conditions: Jurkat cell line over-expressing human PD-1; PE-labeled PD-L1-Ig 20 nM final; compound incubated 2 hours at 37° C.; read-out: Jurkat HPD1-PDL1 IC50. The essentials:
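Compound was added to Jurkat-PD-1 cells in DMEM plus 10% fetal calf serum and incubated 2 hours at 37° C. Binding of phycoerythrin-conjugated PD-L1-Ig (20 nM final) to the cells was imaged.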

Positions of bridges follow the written chain, without caps; N, C: chain ends. Non-standard residues stand in square brackets, D forms with d. Residues, ends and D or L forms follow the SMILES beside them. ξ: configuration not given here. Phe(4-COOH) = N[C@@H](Cc1ccc(C(=O)O)cc1)C(=O)O; Bip = N[C@@H](Cc1ccc(-c2ccccc2)cc1)C(=O)O; Phe(3-OMe) = COc1cccc(C[C@H](N)C(=O)O)c1; NMeY = CN[C@@H](Cc1ccc(O)cc1)C(=O)O; NMeF = CN[C@@H](Cc1ccccc1)C(=O)O; 4Pal = N[C@@H](Cc1ccncc1)C(=O)O; Cha = N[C@@H](CC1CCCCC1)C(=O)O; NMeA = CN[C@@H](C)C(=O)O; Orn = NCCC[C@H](N)C(=O)O; ξF = NC(Cc1ccccc1)C(=O)O; Dab = NCC[C@H](N)C(=O)O; Dap = NC[C@H](N)C(=O)O; ξV = CC(C)C(N)C(=O)O; Sar = CNCC(=O)O

What is called IC50 is the concentration that gives 50% inhibition.

T1 sequence (Q15116 25-288): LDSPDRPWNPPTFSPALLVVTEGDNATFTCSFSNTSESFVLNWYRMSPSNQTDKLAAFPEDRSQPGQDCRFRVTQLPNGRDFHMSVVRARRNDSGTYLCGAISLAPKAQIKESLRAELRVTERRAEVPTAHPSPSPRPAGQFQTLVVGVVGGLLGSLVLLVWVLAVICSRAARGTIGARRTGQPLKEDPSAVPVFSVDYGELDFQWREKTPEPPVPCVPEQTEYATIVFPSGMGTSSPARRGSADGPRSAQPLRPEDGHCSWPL

Regarding `CC[C@H](C)[C@@H]1NC(=O)[C@H](CC(C)C)NC(=O)[C@H](CC(N)=O)NC(=O)CN(C)C(=O)[C@H](C)N(C)C(=O)[C@H](C(C)C)NC(=O)[C@H](Cc2ccc(-c3ccccc3)cc2)NC(=O)[C@H](CC(C)C)NC(=O)[C@H](Cc2c[nH]c3ccccc23)NC(=O)[C@H](CC(=O)O)NC(=O)[C@H](Cc2ccc(O)cc2)NC(=O)[C@H](Cc2ccccc2)NC(=O)CSC[C@@H](C(=O)NCC(N)=O)NC(=O)[C@H](CO)NC1=O` [Example 1142] ({CH2CO}-FYDWL[Bip]V[NMeA][Sar]NLISCG-NH2; thioether N-14), the half-inhibitory concentration (IC50) turned out to be 610 nM.

`CC(C)C1NC(=O)[C@H](Cc2c[nH]c3ccccc23)NC(=O)[C@H](CC(=O)O)NC(=O)[C@H](Cc2ccc(C(=O)O)cc2)NC(=O)[C@H](Cc2ccncc2)NC(=O)CSC[C@@H](C(=O)N[C@@H](C)C(N)=O)NC(=O)[C@H]([C@@H](C)O)NC(=O)[C@H](C(C)C)NC(=O)[C@H](CC2CCCCC2)NC(=O)[C@H](CCN)NC(=O)[C@H](Cc2ccc(O)cc2)N(C)C(=O)[C@H](CCCN)NC(=O)[C@H](CCC(=O)O)NC(=O)[C@H](Cc2ccc(-c3ccccc3)cc2)NC1=O` (some centres unmarked) [Example 1450] ({CH2CO}-[4Pal][Phe(4-COOH)]DW[ξV][Bip]E[Orn][NMeY][Dab][Cha]VTCA-NH2; thioether N-14): the IC50 is 210 nM. With `CC(C)C[C@@H]1NC(=O)[C@H](Cc2c[nH]c3ccccc23)NC(=O)[C@H](CC(=O)O)NC(=O)[C@H](Cc2ccc(O)cc2)NC(=O)[C@H](Cc2ccccc2)NC(=O)CSC[C@@H](C(=O)N[C@@H](C)C(N)=O)NC(=O)[C@H]([C@@H](C)O)NC(=O)[C@H](CCCNC(=N)N)NC(=O)[C@H](CC(C)C)NC(=O)[C@H](CC(N)=O)NC(=O)[C@H]2CCCN2C(=O)[C@H](C)N(C)C(=O)[C@H](C(C)C)NC(=O)[C@H](Cc2ccc(-c3ccccc3)cc2)NC1=O` [Example 1171] ({CH2CO}-FYDWL[Bip]V[NMeA][dP]NLRTCA-NH2; thioether N-14), the half-maximal inhibitory concentration (IC50) turned out to be 940 nM. For the compound `COc1cccc(C[C@@H]2NC(=O)[C@H](Cc3ccccc3)NC(=O)CSC[C@@H](C(=O)N[C@@H](C)C(N)=O)NC(=O)[C@H](CO)NC(=O)[C@H](C(C)C)NC(=O)[C@H](CC(C)C)NC(=O)[C@H](CC(N)=O)NC(=O)[C@H]3CCCN3C(=O)[C@H](C)N(C)C(=O)[C@H](C(C)C)NC(=O)[C@H](Cc3ccc(-c4ccccc4)cc3)NC(=O)[C@H](CC(C)C)NC(=O)[C@H](Cc3c[nH]c4ccccc34)NC(=O)[C@H](CC(=O)O)NC2=O)c1` [Example 1055] ({CH2CO}-F[Phe(3-OMe)]DWL[Bip]V[NMeA][dP]NLVSCA-NH2; thioether N-14), the IC50 was 120 nM. For `CC(C)C[C@@H]1NC(=O)[C@H](Cc2c[nH]c3ccccc23)NC(=O)[C@H](CC(=O)O)NC(=O)[C@H](Cc2ccc(O)cc2)NC(=O)[C@H](Cc2ccccc2)NC(=O)CSC[C@@H](C(=O)NCC(N)=O)NC(=O)[C@H](CO)NC(=O)[C@H](C(C)C)NC(=O)[C@H](CC(C)C)NC(=O)[C@H](CCCCN)NC(=O)CN(C)C(=O)[C@H](C)N(C)C(=O)[C@H](C(C)C)NC(=O)[C@H](Cc2ccc(-c3ccccc3)cc2)NC1=O` [Example 1051] ({CH2CO}-FYDWL[Bip]V[NMeA][Sar]KLVSCG-NH2; thioether N-14), the IC50 turned out to be 110 nM. Take `CC(C)C[C@@H]1NC(=O)[C@H](Cc2c[nH]c3ccccc23)NC(=O)[C@H](CC(=O)O)NC(=O)[C@H](Cc2ccc(O)cc2)NC(=O)C(Cc2ccccc2)NC(=O)CSC[C@@H](C(=O)NCC(N)=O)NC(=O)[C@@H](CO)NC(=O)[C@H](C(C)C)NC(=O)[C@H](CC(C)C)NC(=O)[C@H](CC(N)=O)NC(=O)CN(C)C(=O)[C@H](C)N(C)C(=O)[C@H](C(C)C)NC(=O)[C@H](Cc2ccc(-c3ccccc3)cc2)NC1=O` (some centres unmarked) [Example 1043] ({CH2CO}-[ξF]YDWL[Bip]V[NMeA][Sar]NLV[dS]CG-NH2; thioether N-14): the half-maximal inhibitory concentration (IC50) is 80 nM. Take `CC(C)[C@@H]1NC(=O)[C@H](Cc2c[nH]c3ccccc23)NC(=O)[C@H](CC(=O)O)NC(=O)[C@H](Cc2ccc(C(=O)O)cc2)NC(=O)[C@H](Cc2ccncc2)NC(=O)CSC[C@@H](C(=O)N[C@@H](C)C(N)=O)NC(=O)[C@H]([C@@H](C)O)NC(=O)[C@H](C(C)C)NC(=O)[C@H](CC2CCCCC2)NC(=O)[C@H](CCN)NC(=O)[C@H](Cc2ccccc2)N(C)C(=O)[C@H](CCCN)NC(=O)[C@H](CCC(=O)O)NC(=O)[C@H](Cc2ccc(-c3ccccc3)cc2)NC1=O` [Example 1438] ({CH2CO}-[4Pal][Phe(4-COOH)]DWV[Bip]E[Orn][NMeF][Dab][Cha]VTCA-NH2; thioether N-14): the IC50 stood at 70 nM. The value for `CC(C)C[C@@H]1NC(=O)[C@H](CCCNC(=N)N)NC(=O)[C@H](Cc2ccccc2)N(C)C(=O)[C@H](C)N(C)C(=O)[C@H](CCCNC(=N)N)NC(=O)[C@H](Cc2ccc(-c3ccccc3)cc2)NC(=O)[C@H](C(C)C)NC(=O)[C@H](Cc2c[nH]c3ccccc23)NC(=O)[C@H](CC(=O)O)NC(=O)[C@H](Cc2ccc(O)cc2)NC(=O)[C@H](CC(N)=O)NC(=O)CSC[C@@H](C(=O)NCC(N)=O)NC(=O)[C@H](CO)NC(=O)[C@H](C(C)C)NC1=O` [Example 1032] ({CH2CO}-NYDWV[Bip]R[NMeA][NMeF]RLVSCG-NH2; thioether N-14) was 60 nM; that for `CC(C)C[C@@H]1NC(=O)[C@H](Cc2c[nH]c3ccccc23)NC(=O)[C@H](CC(=O)O)NC(=O)[C@H](Cc2ccc(O)cc2)NC(=O)[C@H](Cc2ccccc2)NC(=O)CSC[C@@H](C(=O)N[C@@H](C)C(N)=O)NC(=O)[C@H](CO)NC(=O)[C@H](C(C)C)NC(=O)[C@H](CC(C)C)NC(=O)[C@H](CCN)NC(=O)[C@H]2CCCN2C(=O)[C@H](CCCN)NC(=O)[C@H](C(C)C)NC(=O)[C@H](Cc2ccc(-c3ccccc3)cc2)NC1=O` [Example 1421] ({CH2CO}-FYDWL[Bip]V[Orn][dP][Dab]LVSCA-NH2; thioether N-14) was 60 nM.

As for `CC(C)C[C@@H]1NC(=O)[C@H](Cc2c[nH]c3ccccc23)NC(=O)[C@H](CC(=O)O)NC(=O)[C@H](Cc2ccc(O)cc2)NC(=O)[C@H](CN)NC(=O)CSC[C@@H](C(=O)N[C@@H](C)C(N)=O)NC(=O)[C@H](CO)NC(=O)[C@H](C(C)C)NC(=O)[C@H](CC(C)C)NC(=O)[C@H](CC(N)=O)NC(=O)[C@H]2CCCN2C(=O)[C@H](C)N(C)C(=O)[C@H](C(C)C)NC(=O)[C@H](Cc2ccc(-c3ccccc3)cc2)NC1=O` [Example 1394] ({CH2CO}-[Dap]YDWL[Bip]V[NMeA][dP]NLVSCA-NH2; thioether N-14), the IC50 worked out at 90 nM. Next, `CC(C)C[C@@H]1NC(=O)[C@H](Cc2c[nH]c3ccccc23)NC(=O)[C@H](CC(=O)O)NC(=O)[C@H](Cc2ccc(O)cc2)NC(=O)[C@H](Cc2ccccc2)NC(=O)CSC[C@@H](C(=O)NCC(N)=O)NC(=O)[C@H](CO)NC(=O)[C@H](C(C)C)NC(=O)[C@H](CC(C)C)NC(=O)[C@H](CC(N)=O)NC(=O)[C@H](C)N(C)C(=O)[C@H](C)N(C)C(=O)[C@H](C(C)C)NC(=O)[C@H](Cc2ccc(-c3ccccc3)cc2)NC1=O` [Example 1120] ({CH2CO}-FYDWL[Bip]V[NMeA][NMeA]NLVSCG-NH2; thioether N-14): 430 nM.
